This is an account of results in ChEMBL document CHEMBL4219043, “Beyond the Rule of 5: Lessons Learned from AbbVie's Drugs and Compound Collection” (J Med Chem, 2018).

Values after ≈ are worked out from the molar mass of the structure shown.

A short description of data set [1]: Half life in dog at 3 mg/kg, po by LC-MS/MS analysis. Particulars: in vivo. Format: ADME, organism-based, Canis lupus familiaris.
Data set [2] in a line: Plasma clearance in iv dosed rat by LC-MS/MS analysis. Format: ADME, organism-based.
In data set [3] the test system is Hepatitis C virus. The experiment in a line: Antiviral activity against HCV genotype 1a H77 infected in human HuH7 replicon cells after 3 days in presence of 40% human plasma by luciferase reporter gene assay. Format: functional, organism-based, Hepacivirus hominis. Conditions: genotype 1a H77, Huh-7, 72 h.
The test system of data set [4] is Hepatitis C virus. The experiment in a line: Antiviral activity against HCV genotype 1b Con1 infected in human HuH7 replicon cells after 3 days in presence of 40% human plasma by luciferase reporter gene assay. Particulars: isolate Con1, Huh-7, 72 h. Format: functional, organism-based, Hepacivirus hominis.
A short description of data set [5]: (§1) Oral bioavailability in dog at 3 mg/kg by LC-MS/MS analysis. Format: ADME, organism-based, Canis lupus familiaris. Conditions: in vivo.
Data set [6] can be described thus: Half life in iv dosed rat by LC-MS/MS analysis. Conditions: in vivo. Format: ADME, organism-based.
Data set [7] deals with Hepatitis C virus. The experiment in a line: Antiviral activity against HCV genotype 1a H77 harboring NS3 R155K mutant infected in human HuH7 replicon cells after 3 days by luciferase reporter gene assay. Particulars: genotype 1a H77, Huh-7, 72 h. Format: functional, organism-based, Hepacivirus hominis.
In data set [8] the test system is Hepatitis C virus. The experiment in a line: Antiviral activity against HCV genotype 1b Con1 infected in human HuH7 replicon cells after 3 days in absence of human plasma by luciferase reporter gene assay. Format: functional, organism-based, Hepacivirus hominis. Conditions: isolate Con1, Huh-7, 72 h.
Data set [9] can be described thus: Plasma clearance in dog at 1 mg/kg, iv by LC-MS/MS analysis. Format: ADME, organism-based, Canis lupus familiaris.
A short description of data set [10]: Half life in po dosed rat by LC-MS/MS analysis. Format: ADME, organism-based. Conditions: in vivo.
For data set [11], the system named is Hepatitis C virus. The data set is described as follows: Ratio of EC50 in presence of 40% human plasma to EC50 in absence of human plasma for HCV genotype 1a H77 infected in human HuH7 replicon cells. Format: functional, Hepacivirus hominis.
Data set [12] concerns Hepatitis C virus. The experiment in a line: Resistance index, ratio of EC50 for HCV genotype 1b Con1 harboring NS3 D168V mutant infected in human HuH7 replicon cells to EC50 for HCV genotype 1b Con1 harboring wild type NS3 infected in human HuH7 replicon cells. Format: functional, Hepacivirus hominis, isolate Con1.
The nature of data set [13]: Oral bioavailability in rat by LC-MS/MS analysis. Format: ADME, organism-based. Particulars: in vivo.
The test system of another data set is Rattus norvegicus. The experiment in a line: Dose normalized AUC in po dosed rat after 24 hrs by LC-MS/MS analysis. Format: ADME, organism-based. Particulars: in vivo.
In data set [14] the test system is Hepatitis C virus. The experiment in a line: Resistance index, ratio of EC50 for HCV genotype 1a H77 harboring NS3 D168V mutant infected in human HuH7 replicon cells to EC50 for HCV genotype 1a H77 harboring wild type NS3 infected in human HuH7 replicon cells. Format: functional, Hepacivirus hominis.
Data set [15] relates to Hepatitis C virus. The experiment in a line: Antiviral activity against HCV genotype 3a infected in human HuH7 replicon cells after 3 days in absence of human plasma by luciferase reporter gene assay. Format: functional, organism-based, Hepacivirus hominis. Particulars: Huh-7, 72 h.
Data set [16] deals with Hepatitis C virus. The data set is described as follows: Antiviral activity against HCV genotype 1b Con1 harboring NS3 R155K mutant infected in human HuH7 replicon cells after 3 days by luciferase reporter gene assay. Format: functional, organism-based, Hepacivirus hominis. Particulars: isolate Con1, Huh-7, 72 h.
The subject of data set [17] is Hepatitis C virus. The data set is described as follows: Resistance index, ratio of EC50 for HCV genotype 1a H77 harboring NS3 R155K mutant infected in human HuH7 replicon cells to EC50 for HCV genotype 1a H77 harboring wild type NS3 infected in human HuH7 replicon cells. Format: functional, Hepacivirus hominis.
Data set [18] can be described thus: Apparent permeability of the compound by PAMPA. Format: ADME.
The subject of data set [19] is Hepatitis C virus. The data set is described as follows: Antiviral activity against HCV genotype 1a H77 infected in human HuH7 replicon cells after 3 days in absence of human plasma by luciferase reporter gene assay. Format: functional, organism-based, Hepacivirus hominis. Particulars: genotype 1a H77, Huh-7, 72 h.
Data set [20] deals with Hepatitis C virus. The experiment in a line: Resistance index, ratio of EC50 for HCV genotype 1b Con1 harboring NS3 R155K mutant infected in human HuH7 replicon cells to EC50 for HCV genotype 1b Con1 harboring wild type NS3 infected in human HuH7 replicon cells. Format: functional, Hepacivirus hominis, isolate Con1.
For data set [21], the system named is Canis familiaris. The experiment in a line: Fraction of drug absorbed into portal vein in dog at 3 mg/kg, po by LC-MS/MS analysis. Format: ADME, organism-based, Canis lupus familiaris. Conditions: in vivo.
Data set [22] in a line: Solubility in pH 7.2 buffer. Format: physicochemical.
Data set [23] has as its system Hepatitis C virus. The data set is described as follows: Antiviral activity against HCV genotype 1a H77 harboring NS3 D168V mutant infected in human HuH7 replicon cells after 3 days by luciferase reporter gene assay. Format: functional, organism-based, Hepacivirus hominis. Conditions: genotype 1a H77, Huh-7, 72 h.
Data set [24] relates to Canis familiaris. The experiment in a line: Dose normalized AUC in dog at 3 mg/kg, po after 24 hrs by LC-MS/MS analysis. Format: ADME, organism-based, Canis lupus familiaris. Particulars: in vivo.
Data set [25] in a line: Half life in dog at 1 mg/kg, iv by LC-MS/MS analysis. Format: ADME, organism-based, Canis lupus familiaris. Particulars: in vivo.
Data set [26] in a line: Ratio of EC50 for HCV genotype 3a infected in human HuH7 replicon cells to EC50 for HCV genotype 1a H77 infected in human HuH7 replicon cells. Format: functional.
The subject of data set [27] is Canis familiaris. Described as §1. Format: ADME, organism-based, Canis lupus familiaris. Particulars: in vivo.
Data set [28] relates to Hepatitis C virus. The data set is described as follows: Antiviral activity against HCV genotype 1b Con1 harboring NS3 D168V mutant infected in human HuH7 replicon cells after 3 days by luciferase reporter gene assay. Format: functional, organism-based, Hepacivirus hominis. Conditions: isolate Con1, Huh-7, 72 h.
Data set [29] is described as follows: Apparent permeability of the compound in human Caco2 cells. Format: ADME, cell-based. Particulars: Caco-2.
The next data set relates to MOLT-4. The data set is described as follows: Antiproliferative activity against human MOLT4 cells in presence of 10% human serum. Format: functional, cell-based.
Data set [30] has as its target Apoptosis regulator Bcl-2 (Homo sapiens, UniProt P10415). The experiment in a line: Inhibition of Bcl2 (unknown origin).
The test system of another data set is RS4-11. The experiment in a line: Antiproliferative activity against human RS4:11 cells in presence of 10% human serum. Format: functional, cell-based.
Data set [31] can be described thus: Oral bioavailability in dog. Format: ADME, organism-based, Canis lupus familiaris. Conditions: in vivo.

Chain of Apoptosis regulator Bcl-2 (P10415 whole entry): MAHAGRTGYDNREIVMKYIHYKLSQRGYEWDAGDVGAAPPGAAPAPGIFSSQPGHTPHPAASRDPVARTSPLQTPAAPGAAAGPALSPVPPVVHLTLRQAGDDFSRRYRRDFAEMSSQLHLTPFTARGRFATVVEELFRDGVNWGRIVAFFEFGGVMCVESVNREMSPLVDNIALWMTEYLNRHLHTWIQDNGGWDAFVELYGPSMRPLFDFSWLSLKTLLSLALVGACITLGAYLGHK

With `Cn1ccc(C(=O)N[C@H]2CCCCC/C=C\[C@@H]3C[C@@]3(C(=O)NS(=O)(=O)C3(C)CC3)NC(=O)[C@@H]3C[C@@H](Oc4nc5cc(OC(F)(F)F)ccc5c5ccc(F)cc45)CN3C2=O)n1`, the half-life was 4 h in data set [1], 5 h in data set [6], 4.6 h in data set [10] and 3.2 h in data set [25]. The figures for the clearance in data set [2] and in data set [9] were 18.3 mL/min/kg and 0.167 mL/min/kg, respectively. Besides, the EC50 in the data set with Hepatitis C virus [3] is 7 nM; in the data set with Hepatitis C virus [4], 3 nM; with Hepatitis C virus [7] it was 2 nM; with Hepatitis C virus [8] it was 0.1 nM; with Hepatitis C virus [15], 0.3 to 0.8 nM; with Hepatitis C virus [16], 0.03 nM. In addition, the results for the concentration for a half-maximal effect (EC50) in the data set on Hepatitis C virus [19] and in the data set on Hepatitis C virus [23] were 0.2 nM and 3 nM, respectively. Besides, the bioavailability in data set [5] came out at 81%; in [13] it was 43%. For the same compound, the “Ratio EC50” value in the data set on Hepatitis C virus [11] is reported as over 30; with Hepatitis C virus [12], 2; in the data set on Hepatitis C virus [14] it was 97; with Hepatitis C virus [17] it was 65; in the data set on Hepatitis C virus [20] it was 0.5; in data set [26] it was “<=10”. Also, the results for the AUC/dose with Rattus norvegicus and with Canis familiaris [24] were 0.4 µg·h/mL and 138 µg·h/mL, respectively. The Papp in [18] worked out at 0.06 ×10⁻⁶ cm/s. The same compound gave a FaFg with Canis familiaris [21] of 0.8. The same compound displayed a Solubility in data set [22] of 0.65 µM (≈ 0.565 µg/mL).

For the compound `Cc1cc(C(=O)N[C@H]2CCCCC/C=C\[C@@H]3C[C@@]3(C(=O)NS(=O)(=O)C3CC3)NC(=O)[C@@H]3C[C@@H](Oc4nc5ccccc5nc4C(F)(F)F)CN3C2=O)no1`, the half-life is 1.5 h in data set [1], 1.2 h in data set [6], 1.8 h in data set [10] and 1 h in [25]. Besides, the figures for the clearance in [2] and in [9] were 3.5 mL/min/kg and 5.67 mL/min/kg, respectively. In addition, the EC50 worked out at 12 nM in the data set with Hepatitis C virus [3]; 10 nM with Hepatitis C virus [4]; 0.4 nM in the data set on Hepatitis C virus [7]; 0.4 nM in the data set with Hepatitis C virus [8]; 0.7 nM with Hepatitis C virus [16]; 2 nM in the data set with Hepatitis C virus [28]. For the same compound, the EC50 in the data set with Hepatitis C virus [19] was 0.5 nM; in the data set with Hepatitis C virus [23], 33 nM. In addition, in the data set on Canis familiaris [27], the F is recorded as 200%. Also, the “Ratio EC50” value in the data set on Hepatitis C virus [11] is listed as 6 - 35; in the data set with Hepatitis C virus [12], 6; with Hepatitis C virus [14], 290; in the data set on Hepatitis C virus [17], 4; in the data set on Hepatitis C virus [20], 2. Also, in data set [13], the bioavailability is 99.5%. Besides, the values for the AUC/dose in the data set on Rattus norvegicus and in the data set with Canis familiaris [24] were 4.75 µg·h/mL and 6.76 µg·h/mL, respectively. For the same compound, the Papp in data set [29] stood at 5.4 ×10⁻⁶ cm/s. In the data set on Canis familiaris [21], this compound displayed a FaFg of 1.5. This compound also came in with a Solubility in data set [22] of 150 µM (≈ 116 µg/mL).

On to `Cc1cc(C(=O)N[C@H]2CCCCC/C=C\[C@@H]3C[C@@]3(C(=O)NS(=O)(=O)C3CC3)NC(=O)[C@@H]3C[C@@H](Oc4nc5cc(F)ccc5nc4C)CN3C2=O)no1`, for which the half-life in data set [1] and in data set [25] was 2 h each time. The EC50 with Hepatitis C virus [3] worked out at 11 nM; with Hepatitis C virus [4] it was 7 nM; in the data set with Hepatitis C virus [7], 2 nM; with Hepatitis C virus [8], 0.8 nM; in the data set with Hepatitis C virus [16], 1.6 nM; in the data set with Hepatitis C virus [28], 3 nM. In addition, the values for the EC50 with Hepatitis C virus [19] and with Hepatitis C virus [23] were 1.1 nM and 41 nM, respectively. The bioavailability in [5] was determined as 123%. In addition, the clearance in data set [9] is 1.17 mL/min/kg. Moreover, the “Ratio EC50” value is given as 6 - 35 with Hepatitis C virus [11]; 4 in the data set with Hepatitis C virus [12]; 146 with Hepatitis C virus [14]; 7 in the data set with Hepatitis C virus [17]; 2 with Hepatitis C virus [20]. In addition, the Papp in data set [29] was found to be 2.8 ×10⁻⁶ cm/s. Further, the Solubility in data set [22] was over 500 µM. In the data set with Canis familiaris [24], this compound showed an AUC/dose of 18 µg·h/mL.

For `CO[C@H]1CC[C@H](CNc2ccc(S(=O)(=O)NC(=O)c3ccc(N4CCN(CC5=C(c6ccc(Cl)cc6)CC(C)(C)CC5)CC4)cc3Oc3cnc4[nH]ccc4c3)cc2[N+](=O)[O-])CC1` [A-1211212], the EC50 is over 5000 nM with MOLT-4 and 6 nM with RS4-11. Further, in data set [30], the Ki was under 0.01 nM.

For the compound `CC1(C)CCC(c2ccc(Cl)cc2)=C(CN2CCN(c3ccc(C(=O)NS(=O)(=O)c4ccc(N[C@H](CCN5CCOCC5)CSc5ccccc5)c(S(=O)(=O)C(F)(F)F)c4)cc3)CC2)C1` [NAVITOCLAX], the results for the concentration giving a half-maximal response (EC50) with MOLT-4 and in the data set with RS4-11 were 303 nM and 112 nM, respectively. The bioavailability in data set [31] was 48%.
